Patent publication US10745408B2, “Biologically active taxane analogs and methods of treatment by oral administration” (Tapestry Pharmaceuticals, Inc., priority 2007, dated 2020)
Like-named read-outs stand apart in the source and are kept apart here.

What was measured:
[1] = S-(1) pharmacokinetics in mouse, plasma and brain levels after single IV dose; assay type: in vivo, CD-1 mice; conditions: single IV 20 mg/kg; for AUC(0-inf) / AUC(0-t) / Cmax / MRT: CD-1, mouse
Procedure: S-(1) Pharmacokinetic Data in Mouse Model:
The formulated drug was administered as a single IV bolus via tail vein injection.
Sample Collection timing: Terminal blood (plasma) and brain specimens were collected at 9 times post-dose, with 4 mice per sample time. Sample collection times: 5, 15 min., 2, 8, 24, 32, 48, 72 and 96 hr post-dose (4 mice per sample time).
Blood collection: A terminal blood sample was collected from each mouse via cardiac puncture. The whole blood was collected on wet ice, spun down immediately (at 4° C.), and plasma stored frozen at −20° C. until analysis. The anticoagulant used was K2EDTA. Brain Sample Collection: Whole brains were removed by dissection. Brains were collected on wet ice, weighed, and stored at −20° C.

KBV (MDR+) = assay: MTS proliferation assay, head/neck KBV (MDR+); assay type: cell-based
Procedure: MTS Proliferation Assay (Promega)
Day 1: Cells were plated in appropriate growth medium at 5×10^3 per well in 100 ul in 96 well tissue culture plates, Falcon, one for each drug to be tested. Col 1 was blank; it contained no cells, just medium. The plates were incubated overnight at 37° C., 5% CO2 to allow attachment.
Day 2: Added 120 ul growth medium in wells of 96-well “dilution plates” (one for each drug) and let sit in 37° C. incubator for about 1 hr.
Thawed DMSO drug stocks (usually at 10 mM). Each drug was diluted 6 ul into a tube with 3 ml growth medium, to 20 μM.
Aspirated medium from col 12 of a dilution plate; added 200-300 ul of 20 uM drug to wells of col 12. Made serial dilution down this 96-well plate: for a […] dilution pattern, moved 60 ul from col 12 to col 11, mixed 4-5 times (using 8 place multi-pipettor), moved 60 ul to col 10, etc. stopping at col 3.
Moved 100 ul of medium+drug from dilution plate to a cell plate, i.e. col 1 from drug plate (blank=no cells) to col 1 of cell plate, etc. up to col 12. Col 2 contained cells with no drug. […]
Day 4 or 5: Terminated the assay 48 to 72 hrs after drug addition. […] When the color turned dark in control wells (col 2), and was still light in col 12, the absorbance at 490 nm was read on a plate reader; the results were used to calculate IC50.

[2] = Phase 1 Study S-(1)-02 plasma pharmacokinetics (every 21 days); assay type: in vivo, human; conditions: for half-life / AUC(0-t): human, plasma; for AUC(0-t): read-out: AUC0-24
Text: Both trials have enrolled patients with advanced solid tumors, non-Hodgkin's lymphoma or Hodgkin's lymphoma that have recurred or progressed following at least standard therapy; patients with malignancies for which there is no standard therapy; patients who are not candidates for standard therapy; or patients who have chosen not to pursue standard therapy. […] Study S-(1)-01 is currently being conducted in the United States. […] Study S-(1)-02 is currently being conducted in the United States and in Israel.
Plasma pharmacokinetics of S-(1) were assessed following the first dose of S-(1) in both studies. Plasma samples were analyzed for S-(1) using a validated LC/MS-MS method.

[3] = system: bovine microtubule protein; assay: In vitro ED50 MT polymerization study (DAPI fluorescence tubulin assay); assay type: biochemical; conditions: tubulin polymerization, 37° C. 30 minutes, maximum assembly = 25 μM paclitaxel
Procedure: In Vitro ED50 MT Polymerization Study
In this tubulin binding assay, microtubule protein (MTP) is used as a substrate. The assay contains bovine tubulin plus microtubule associated proteins (MAP). MTP is polymerized into microtubules in the presence of DAPI (4′,6′-diamidino-2-phenylindole), a fluorescent compound. DAPI binds to tubulin; when microtubules are formed and there is an enhancement of fluorescence. The microtubule formation is measured as a function of time, using a fluorescence plate reader. […] The method used is based on the procedure published by Donna M. Barron, et al, “Fluorescence-based high-throughput assay for antimicrotuble drugs” Analytical Biochemistry, 315: 49-56, 2003, which is incorporated by reference in its entirety. The excitation wavelength, in that assay, was set at 370 nm and the emission wavelength was set at 450 nm for the DAPI experiments.
A Bio-Tek FL 600 microplate Fluorescence Reader was used to measure the relative level of fluorescence in the DAPI assay.
Assays were conducted in 96-well plates. Each well contained a total volume of 0.1 mL consisting of PEM buffer (0.1 M Pipes, 1 mM EGTA, 1 mM MgCl2, pH 6.9), 0.2 mg bovine microtubule protein, and 10 μg of DAPI. […] The final DMSO concentration was 4%. The plates were incubated at 37° C. for 30 minutes and read in a fluorescence plate reader using an excitation wavelength of 360 nm and an emission wavelength of 460 nm. Fluorescence values were corrected for the sample without compound.
Experiments were done twice in triplicate. Results were subsequently combined and fit to a non-linear regression program.

[4] = 56 mg/m^2 i.v., first dose, 15:85 Cremophor EL-P/ethanol formulation
[5] = 84 mg/m^2 i.v., first dose, 15:85 Cremophor EL-P/ethanol formulation
[6] = 126 mg/m^2 i.v., first dose, 15:85 Cremophor EL-P/ethanol formulation
[7] = 185 mg/m^2 i.v., first dose, 15:85 Cremophor EL-P/ethanol formulation

`C=C[C@H]1O[C@H]2C[C@H]3OC[C@@]3(OC(C)=O)[C@H]3[C@H](OC(=O)c4ccccc4)[C@]4(C(C)(C)O)CC(OC(=O)[C@H](O)C(CC(C)C)NC(=O)OC(C)(C)C)C(C)=C4[C@H](OC(C)=O)[C@H](O1)[C@]23C` (stereo partly drawn) [S-(1)] showed an AUC(0-inf) ([1]; Brain) of 88700 ng·h/mL, an AUC(0-t) ([1]; Brain) of 65000 ng·h/mL and a Cmax ([1]; Brain) of 3730 ng/mL. For the same compound, the MRT ([1]; Brain) was 42.5 h, the AUC(0-inf) ([1]; Plasma) was 17000 ng·h/mL and the AUC(0-t) ([1]; Plasma) was 16900 ng·h/mL. The Cmax ([1]; Plasma) was 1550 ng/mL, the MRT ([1]; Plasma) was 17.6 h and the blood-brain barrier passage ([1]; mouse model) was “not impeded by the blood-brain barrier”. For the same compound, the IC50 (KBV (MDR+)) was 553 nM, the Cl [2, 4] was 18.9 ± 9.53 L/hr/m^2 and the Vss [2, 4] was 232 ± 93.6 L/m^2. It also gave a Cl [2, 5] of 15.4 L/hr/m^2, a Vss [2, 5] of 300 L/m^2 and a Cl [2, 6] of 22.1 ± 11.2 L/hr/m^2. For the same compound, the Vss [2, 6] was 166 ± 105 L/m^2, the t1/2 [2, 6] was 6.27 ± 3.64 h and the Cl [2, 7] was 24.7 ± 12.2 L/hr/m^2. For the same compound, the Vss [2, 7] was 215 ± 116 L/m^2, the half-life ([2]; intravenous, S-(1)-02 study, all dose groups, read-out: Plasma t1/2 values, range over dose groups) was 3.43 to 8.96 h and the AUC(0-t) ([2]; iv, 56 mg/m2, 56 mg/m^2 i.v., first dose, 15:85 Cremophor EL-P/ethanol formulation) was 2530 ± 847 ng·h/mL. The half-life ([2]; iv, 56 mg/m2, 56 mg/m^2 i.v., first dose, 15:85 Cremophor EL-P/ethanol formulation, read-out: t1/2 (converted)) was 8.96 ± 7.09 h, the AUC(0-t) ([2]; iv, 84 mg/m2, 84 mg/m^2 i.v., first dose, 15:85 Cremophor EL-P/ethanol formulation) was 3710 ng·h/mL and the AUC(0-t) ([2]; iv, 126 mg/m2, 126 mg/m^2 i.v., first dose, 15:85 Cremophor EL-P/ethanol formulation) was 6110 ± 3030 ng·h/mL. It also gave a half-life ([2]; iv, 126 mg/m2, 126 mg/m^2 i.v., first dose, 15:85 Cremophor EL-P/ethanol formulation, read-out: t1/2 (converted)) of 10.6 ± 7.1 h, an AUC(0-t) ([2]; iv, 185 mg/m2, 185 mg/m^2 i.v., first dose, 15:85 Cremophor EL-P/ethanol formulation) of 7260 ± 2620 ng·h/mL and a half-life ([2]; iv, 185 mg/m2, 185 mg/m^2 i.v., first dose, 15:85 Cremophor EL-P/ethanol formulation, read-out: t1/2 (converted)) of 3.43 ± 7.31 h. It also gave an EC50 [3] of 1580 ± 460 nM.
